Assay [1] concerns IL-23 (p19/p40). The assay can be described thus: IL23-p19 ELISA, Dendritic, LPS (compound screening using DC cells). The following applies: PBMC-derived DC cells, IFNγ primed, LPS 1 μg/ml, 18 hours, 10 pt, read-out: IL23-p19 ELISA, Dendritic, LPS, 10 pt, EC50. The format is cell-based, Human. In a few lines: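 Human PBMC-derived dendritic cells (7 d GM-CSF 100 ng/ml + IL-4 20 ng/ml), primed 24 h with IFNγ 50 ng/ml, pre-incubated 1 h with compound, then stimulated 18 h with LPS 1 μg/ml. Supernatant IL-23 measured by p19-capture/p40-detection chemiluminescent ELISA; CellTiter Glo checks cytotoxicity.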
A general note: In an ELISA, binding on a coated surface is turned into a signal by an enzyme label.

The test system of assay [2] is IL-23p19. The assay can be described thus: LPS induced IL23p19 in THP-1 cells (with IFNγ primed) assay. Type of assay: cell-based, Human. The following applies: THP-1 cells, IFNγ primed, LPS 1 ug/mL, 18 hours, 10 pt, read-out: IL23-p19 ELISA, THP1-IFNy, LPS, 10 pt EC50. In outline: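 THP-1 cells primed ~18 h with IFNγ (50 ng/mL), pre-incubated 1 h with compound at 37 °C, then stimulated 18 h with LPS (1 ug/mL final). Supernatant IL-23p19 measured by sandwich ELISA with chemiluminescent read-out; EC50 from curve fitting. Toxicity checked on the remaining cells by Cell Titer Glo.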

Among the data in US10208074B2, “Pyrazole compounds and method for making and using the compounds” (Rigel Pharmaceuticals, Inc., priority 2015, dated 2019) are EC50 values, retold here.

Counter-ions that a name gives are not always drawn. Like-named read-outs stand apart in the source and are kept apart here.

Regarding `CCOCCn1cc(NC(=O)c2csc(-c3cn[nH]c3)n2)c(-c2nccs2)n1` [II-109, N-(1-(2-ethoxyethyl)-3-(thiazol-2-yl)-1H-pyrazol-4-yl)-2-(1H-pyrazol-4-yl)thiazole-4-carboxamide], the half-maximal effective concentration (EC50) (in general, the concentration giving half of the maximal effect) in assay [1] (Homo sapiens, 18 h) was found to be 327 nM; in assay [2] (Homo sapiens, THP-1, 18 h) it was 140 nM.

For the compound `CCO[C@H]1C[C@@H](n2cc(NC(=O)c3csc(-c4cnn(COP(=O)(O)O)c4)n3)c(-c3ccccn3)n2)C1` [II-78, (4-(4-((1-((1,3-cis)-3-ethoxycyclobutyl)-3-(pyridin-2-yl)-1H-pyrazol-4-yl)carbamoyl)thiazol-2-yl)-1H-pyrazol-1-yl)methyl phosphate calcium salt], the EC50 in assay [1] (phosphate calcium salt) was 79.9 nM; in assay [2] (phosphate calcium salt) it was 165 nM.

Consider `O=C(Nc1cn(CCOCC(F)F)nc1-c1ccccn1)c1csc(-c2cn[nH]c2)n1` [II-122, N-(1-(2-(2,2-difluoroethoxy)ethyl)-3-(pyridin-2-yl)-1H-pyrazol-4-yl)-2-(1H-pyrazol-4-yl)thiazole-4-carboxamide], for which the EC50 was determined as 304 nM in assay [1] (Homo sapiens, 18 h) and 213 nM in assay [2] (Homo sapiens, THP-1, 18 h).

With `Cn1cc(NC(=O)c2ccc(-c3cnn(COP(=O)(O)O)c3)o2)c(-c2ccccn2)n1` [Compound I-81, [4-{5-((1-Methyl-3-(pyridine-2-yl)-1H-pyrazol-4-yl)carbamoyl)furan-2yl}-1H-pyrazol-1-yl]methyl dihydrogen phosphate], the EC50 in assay [1] (Homo sapiens, 18 h) amounted to 960 nM; in assay [2] (Homo sapiens, THP-1, 18 h), 153 nM.

`O=C(Nc1cn(C2CNC2)nc1-c1ccccn1)c1ccc(-c2cn[nH]c2)o1` [Compound I-78, N-{1-(Azetidin-3-yl)-3-(pyridine-2-yl)-1H-pyrazol-4-yl}-5-(1H-pyrazol-4-yl)furan-2-carboxamide, TFA salt]: the EC50 in assay [1] (Homo sapiens, 18 h) turned out to be 105 nM; in assay [2] (Homo sapiens, THP-1, 18 h), 78.4 nM.

`CC(C)(O)Cn1cc(NC(=O)c2ccc(-c3cn[nH]c3)o2)c(-c2ccccn2)n1` [Compound I-3, N-(1-(2-hydroxy-2-methylpropyl)-3-(pyridin-2-yl)-1H-pyrazol-4-yl)-5-(1H-pyrazol-4-yl)furan-2-carboxamide]: the EC50 is 362 nM in assay [1] (Homo sapiens, 18 h) and 424 nM in assay [2] (Homo sapiens, THP-1, 18 h).

With `O=C(Nc1cn(CC2CC(O)C2)nc1-c1ccccn1)c1csc(-c2cn[nH]c2)n1` (stereo not drawn) [II-123, N-(1-(((1r,3r)-3-hydroxycyclobutyl)methyl)-3-(pyridin-2-yl)-1H-pyrazol-4-yl)-2-(1H-pyrazol-4-yl)thiazole-4-carboxamide], the EC50 in assay [1] (Homo sapiens, 18 h) turned out to be 149 nM; in assay [2] (Homo sapiens, THP-1, 18 h), 27.1 nM.

For `O=C(Nc1cn(CCO)nc1-c1ncccn1)c1ccc(-c2cn[nH]c2)o1` [Compound I-15, N-(1-(2-hydroxyethyl)-3-(pyrimidin-2-yl)-1H-pyrazol-4-yl)-5-(1H-pyrazol-4-yl)furan-2-carboxamide], the 50% effective concentration (EC50) was found to be 2200 nM in assay [1] (Homo sapiens, 18 h) and 2230 nM in assay [2] (Homo sapiens, THP-1, 18 h).

`O=C(Nc1cn([C@H]2C[C@H](OCC(F)(F)F)C2)nc1-c1ncccc1F)c1csc(-c2cn[nH]c2)n1` [II-167, N-(3-(3-fluoropyridin-2-yl)-1-((trans)-3-(2,2,2-trifluoroethoxy)cyclobutyl)-1H-pyrazol-4-yl)-2-(1H-pyrazol-4-yl)thiazole-4-carboxamide]: the EC50 in assay [1] (Homo sapiens, 18 h) was determined as 96.2 nM; in assay [2] (Homo sapiens, THP-1, 18 h) it was 94.9 nM.

For the compound `CCO[C@@H]1C[C@H](n2cc(NC(=O)c3csc(-c4cn[nH]c4)n3)c(-c3ccccn3)n2)C1F` (stereo partly drawn) [II-155, N-(1-((cis)-3-ethoxy-2-fluorocyclobutyl)-3-(pyridin-2-yl)-1H-pyrazol-4-yl)-2-(1H-pyrazol-4-yl)thiazole-4-carboxamide], the EC50 came out at 61.2 nM in assay [1] (Homo sapiens, 18 h) and 399 nM in assay [2] (Homo sapiens, THP-1, 18 h).

On to `CCO[C@H]1C[C@@H](n2cc(NC(=O)c3csc(-c4cnn(C)c4)n3)c(-c3ccccn3)n2)C1` [II-13, N-(1-((1,3-cis)-3-ethoxycyclobutyl)-3-(pyridin-2-yl)-1H-pyrazol-4-yl)-2-(1-methyl-1H-pyrazol-4-yl)thiazole-4-carboxamide], for which the EC50 in assay [1] (Homo sapiens, 18 h) amounted to 10400 nM; in assay [2] (Homo sapiens, THP-1, 18 h), 4800 nM.

In the case of `CCO[C@H]1C[C@@H](n2cc(NC(=O)c3ccc(-c4c[nH]nc4C)o3)c(-c3ccccn3)n2)C1` [Compound I-29, N-(1-((1,3-cis)-3-ethoxycyclobutyl)-3-(pyridin-2-yl)-1H-pyrazol-4-yl)-5-(3-methyl-1H-pyrazol-4-yl)furan-2-carboxamide], the half-maximal effective concentration (EC50) in assay [1] (Homo sapiens, 18 h) stood at 97.2 nM; in assay [2] (Homo sapiens, THP-1, 18 h), 206 nM.

`Cn1cc(NC(=O)c2ccc(-c3cnn(COP(=O)(OC(C)(C)C)OC(C)(C)C)c3)o2)c(-c2ccccn2)n1` [Compound I-80, Di-tert-butyl-[[4-{4-(5-((1-methyl-3-(pyridine-2-yl)-1H-pyrazol-4-yl)carbamoyl)furan-2-yl)-1H-pyrazol-1-yl}methyl] phosphate]: the EC50 amounted to 2060 nM in assay [1] (Homo sapiens, 18 h) and 2220 nM in assay [2] (Homo sapiens, THP-1, 18 h).

Regarding `CCO[C@H]1C[C@@H](n2cc(NC(=O)c3ccc(-c4cnn(COP(=O)(O)O)c4)o3)c(-c3ccccn3)n2)C1` [Compound I-35, (4-(5-((1-((1,3-cis)-3-ethoxycyclobutyl)-3-(pyridin-2-yl)-1H-pyrazol-4-yl)carbamoyl)furan-2-yl)-1H-pyrazol-1-yl)methyl phosphate bis-sodium salt], the half-maximal effective concentration (EC50) in assay [1] (Homo sapiens, 18 h) was 520 nM; in assay [2] (Homo sapiens, THP-1, 18 h), 63.3 nM.

Turning to `CCOCCn1cc(NC(=O)c2csc(-c3c(C)n[nH]c3C)n2)c(-c2ccccn2)n1` [II-23, 2-(3,5-dimethyl-1H-pyrazol-4-yl)-N-(1-(2-ethoxyethyl)-3-(pyridin-2-yl)-1H-pyrazol-4-yl)thiazole-4-carboxamide, formic acid salt], the EC50 turned out to be 16300 nM in assay [1] (Homo sapiens, 18 h) and 4760 nM in assay [2] (Homo sapiens, THP-1, 18 h).

Turning to `O=C(Nc1cn(CCOCCF)nc1-c1ccccn1)c1csc(-c2cn[nH]c2)n1` [II-118, N-(1-(2-(2-fluoroethoxy)ethyl)-3-(pyridin-2-yl)-1H-pyrazol-4-yl)-2-(1H-pyrazol-4-yl)thiazole-4-carboxamide], the EC50 in assay [1] (Homo sapiens, 18 h) was determined as 212 nM; in assay [2] (Homo sapiens, THP-1, 18 h), 109 nM.

Consider `CCO[C@H]1C[C@@H](n2cc(NC(=O)c3csc(-c4cnn(COP(=O)(O)O)c4)n3)c(-c3ncccc3F)n2)C1` [II-163, (4-(4-((1-((cis)-3-ethoxycyclobutyl)-3-(3-fluoropyridin-2-yl)-1H-pyrazol-4-yl)carbamoyl)thiazol-2-yl)-1H-pyrazol-1-yl)methyl dihydrogen phosphate], for which the 50% effective concentration (EC50) was found to be 348 nM in assay [1] and 109 nM in assay [2] (Homo sapiens, THP-1, 18 h).

With `CCO[C@H]1C[C@@H](n2cc(NC(=O)c3coc(-c4cn[nH]c4)n3)c(-c3ccccn3)n2)C1` [III-4, N-(1-((1s,3s)-3-ethoxycyclobutyl)-3-(pyridin-2-yl)-1H-pyrazol-4-yl)-2-(1H-pyrazol-4-yl)oxazole-4-carboxamide], the 50% effective concentration (EC50) in assay [1] (Homo sapiens, 18 h) was found to be 36.9 nM; in assay [2] (Homo sapiens, THP-1, 18 h), 43.4 nM.

For the compound `O=C(Nc1cn(CC2CCOCC2)nc1-c1ccccn1)c1csc(-c2cn[nH]c2)n1` [II-45, 2-(1H-pyrazol-4-yl)-N-(3-(pyridin-2-yl)-1-((tetrahydro-2H-pyran-4-yl)methyl)-1H-pyrazol-4-yl)thiazole-4-carboxamide formic acid salt], the concentration for a half-maximal effect (EC50) was found to be 129 nM in assay [1] (Homo sapiens, 18 h) and 129 nM in assay [2] (Homo sapiens, THP-1, 18 h).

Take `CCO[C@H]1C[C@H](n2cc(NC(=O)c3ccc(-c4cn[nH]c4)o3)c(-c3ccccn3)n2)C1` [Compound I-27, N-(1-((1,3-trans)-3-ethoxycyclobutyl)-3-(pyridin-2-yl)-1H-pyrazol-4-yl)-5-(1H-pyrazol-4-yl)furan-2-carboxamide]: the EC50 in assay [1] (Homo sapiens, 18 h) was determined as 15.8 nM; in assay [2] (Homo sapiens, THP-1, 18 h) it was 159 nM.

`CCO[C@H]1CC[C@H](n2cc(NC(=O)c3csc(-c4cn[nH]c4)n3)c(-c3nnco3)n2)CC1` [II-178, N-(1-((1r,4r)-4-ethoxycyclohexyl)-3-(1,3,4-oxadiazol-2-yl)-1H-pyrazol-4-yl)-2-(1H-pyrazol-4-yl)thiazole-4-carboxamide]: the concentration for a half-maximal effect (EC50) in assay [1] (Homo sapiens, 18 h) worked out at 37.3 nM; in assay [2] (Homo sapiens, THP-1, 18 h), 119 nM.

In the case of `CCO[C@H]1C[C@@H](n2cc(NC(=O)c3csc(-c4cn[nH]c4)n3)c(-c3cc(F)ccn3)n2)C1` [II-158, N-(1-((cis)-3-ethoxycyclobutyl)-3-(4-fluoropyridin-2-yl)-1H-pyrazol-4-yl)-2-(1H-pyrazol-4-yl)thiazole-4-carboxamide], the concentration for a half-maximal effect (EC50) in assay [1] (Homo sapiens, 18 h) was 92.1 nM; in assay [2] (Homo sapiens, THP-1, 18 h) it was 144 nM.

For the compound `CCOCCn1cc(NC(=O)c2csc(-c3cn[nH]c3)n2)c(-c2ccccn2)n1` [II-25, N-(1-(2-ethoxyethyl)-3-(pyridin-2-yl)-1H-pyrazol-4-yl)-2-(1H-pyrazol-4-yl)thiazole-4-carboxamide], the results for the EC50 in assay [1] and in assay [2] were 170 nM and 146 nM, respectively.

Regarding `O=C(Nc1cn(C2COC2)nc1-c1ccccn1)c1ccc(-c2cn[nH]c2)o1` [Compound I-25, N-(1-(oxetan-3-yl)-3-(pyridin-2-yl)-1H-pyrazol-4-yl)-5-(1H-pyrazol-4-yl)furan-2-carboxamide], the EC50 in assay [1] (Homo sapiens, 18 h) came out at 44.1 nM; in assay [2] (Homo sapiens, THP-1, 18 h), 57.1 nM.
